Molecular target: fibroblast growth factor receptor 1 (FGFR1) (Homo sapiens, UniProt P11362)
Assay: cell-free kinase inhibition, caliper mobility shift assay, ATP at Km ([…])
Assay type: biochemical

Chain of fibroblast growth factor receptor 1 (FGFR1) (P11362 22-822): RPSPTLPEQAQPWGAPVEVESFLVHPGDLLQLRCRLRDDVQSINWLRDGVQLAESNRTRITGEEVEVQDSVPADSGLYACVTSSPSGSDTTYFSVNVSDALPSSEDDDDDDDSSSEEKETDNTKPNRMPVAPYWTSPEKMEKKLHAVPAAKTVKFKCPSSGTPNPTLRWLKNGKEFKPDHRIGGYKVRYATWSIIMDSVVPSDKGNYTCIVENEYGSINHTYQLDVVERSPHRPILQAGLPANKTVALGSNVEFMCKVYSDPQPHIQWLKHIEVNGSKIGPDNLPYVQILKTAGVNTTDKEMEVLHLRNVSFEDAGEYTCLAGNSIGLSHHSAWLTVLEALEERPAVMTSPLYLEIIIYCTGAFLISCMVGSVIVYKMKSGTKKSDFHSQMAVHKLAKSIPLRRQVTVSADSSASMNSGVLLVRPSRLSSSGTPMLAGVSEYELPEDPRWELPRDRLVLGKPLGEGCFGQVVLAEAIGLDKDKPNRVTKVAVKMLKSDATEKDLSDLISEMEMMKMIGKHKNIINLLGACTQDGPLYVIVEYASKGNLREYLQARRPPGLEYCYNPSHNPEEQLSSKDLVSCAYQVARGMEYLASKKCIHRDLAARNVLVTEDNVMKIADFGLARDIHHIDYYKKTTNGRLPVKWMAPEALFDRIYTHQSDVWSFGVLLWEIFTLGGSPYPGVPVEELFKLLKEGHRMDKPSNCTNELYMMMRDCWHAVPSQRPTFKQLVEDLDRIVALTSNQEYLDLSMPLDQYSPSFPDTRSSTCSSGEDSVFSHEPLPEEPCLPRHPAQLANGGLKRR

CCOc1ccc(/C=C2\CC[C@@]3(C2=O)[C@@H](c2ccc(OCC)cc2)CN(C)[C@]32C(=O)c3cccc4cccc2c34)cc1 [G141] showed an IC50 of 2.7 ± 0.54 µM.

From article PMC4819196, “A novel fibroblast growth factor receptor 1 inhibitor protects against cartilage degradation in a murine model of osteoarthritis” (Scientific Reports, 2016)
